Data: publication PMC7118115, “Tumor-penetrating peptide for systemic targeting of Tenascin-C” (Scientific Reports, 2020)

Columns and labels:
PC3 = assay: In vivo play-off phage auditioning, PC3 tumor; design: species or system prostate carcinoma in athymic nude mice; settings: phage-displayed peptide; equimolar mix, i.v. 1 × 10^10 pfu/mouse, 2 h circulation, perfusion; Ion-Torrent sequencing; mean, N = 3 mice
Method: (§1) Athymic nude mice (Hsd/Athymic Fox1 nu Harlan) were purchased from Envigo (Netherlands) and maintained under standard housing conditions of the Animal Facility of the Institute of Biomedicine and Translational Medicine, University of Tartu (Tartu, Estonia). For orthotropic GBM tumor models, we used NCH421K, P13, and P3 stem cell-like, WT-GBM cells. The individual GBM cells around 2–3 × 10^5 in 3 μL PBS were intracranially implanted into mice brain 2 mm right and 1 mm anterior to the bregma. U87-MG and PC3 subcutaneous models were induced by injecting 2–9 × 10^6 cells in 100 µl PBS subcutaneously into the right flank of 11–15 week old male and female nude mice. All animal experiments were performed in accordance with the procedures approved by the Committee of Animal Experimentation of Estonian Ministry of Agriculture, permits #42 and #48.
(§2) In vivo play-off was used for internally controlled and competitive systemic phage homing studies in mice bearing tumor xenografts. Phages displaying the candidate TNC-C binding peptides and control peptides were individually amplified and purified by precipitation with PEG-8000 (Sigma-Aldrich, St. Louis, MO, USA), followed by […] gradient ultracentrifugation and dialysis. The phages were pooled at equimolar representation (Table 1 for details) and injected iv at 1 × 10^10 pfu (in 200 µl PBS) in tumor-bearing mice, circulated for 2 h, followed by anesthesia and intracardial perfusion with DMEM. The tumors and organs were collected in lysogeny broth (LB) medium containing 1% NP40, and the tissues were homogenized using a hand-held homogenizer. Phages in the tissue lysate were amplified in E.coli, purified by precipitation with PEG-8000, and DNA was extracted using a DNA extraction kit (High Pure PCR Template Preparation Kit; Roche, Basel, Switzerland). Next-generation sequencing of phage genomic DNA with Ion Torrent system (Thermo Fisher Scientific, Waltham, MA, USA) was used to evaluate the representation of each peptide-phage in the input mixture, in tumors and control organs. The FASTQ data from Ion Torrent were processed using a custom python script that identified the barcodes, constant flanking residues, and extracted the reads of the correct length.

WT-GBM = assay: In vivo play-off phage auditioning, WT-GBM tumor; design: species or system murine WT-GBM glioblastoma in athymic nude mice; settings: phage-displayed peptide; equimolar mix, i.v. 1 × 10^10 pfu/mouse, 2 h circulation, perfusion; Ion-Torrent sequencing; mean, N = 3 mice
Method: as §1, §2

P3 SCL = assay: In vivo play-off phage auditioning, P3 SCL tumor; design: species or system P3 stem cell-like glioblastoma in athymic nude mice; settings: phage-displayed peptide; equimolar mix, i.v. 1 × 10^10 pfu/mouse, 2 h circulation, perfusion; Ion-Torrent sequencing; mean, N = 3 mice
Method: as §1, §2

U87-MG = assay: In vivo play-off phage auditioning, U87-MG tumor; design: species or system human glioblastoma in athymic nude mice; settings: phage-displayed peptide; equimolar mix, i.v. 1 × 10^10 pfu/mouse, 2 h circulation, perfusion; Ion-Torrent sequencing; mean, N = 3 mice
Method: as §1, §2

P13 = assay: In vivo play-off phage auditioning, P13 tumor; design: species or system P13 glioblastoma in athymic nude mice; settings: phage-displayed peptide; equimolar mix, i.v. 1 × 10^10 pfu/mouse, 2 h circulation, perfusion; Ion-Torrent sequencing; mean, N = 3 mice
Method: as §1, §2

Norm. brain = assay: In vivo play-off phage auditioning, normal brain; design: species or system athymic nude mice; settings: phage-displayed peptide; equimolar mix, i.v. 1 × 10^10 pfu/mouse, 2 h circulation, perfusion; Ion-Torrent sequencing; mean, N = 3 mice
Method: as §2

recombinant TNC-C = assay: Cell-free phage binding to TNC-C; design: species or system human; settings: individual T7 phage clones; Ni-NTA magnetic beads coated with hexahistidine-tagged TNC-C
Method: For biopanning on recombinant human TNC-C, we used NNK-encoded CX7C and X7 peptide T7 phage libraries with diversity ~5 × 10^8. Throughout our screens, the selected phages were amplified following plate amplification protocol. The 1st and 4th rounds of biopanning were performed on TNC-C immobilized on Costar 96-Well ELISA plate (#3590, Corning Life Sciences, Tewksbury, MA, USA). Briefly, the multiwell plates were coated with 20 µg/ml recombinant TNC-C in 100 µl of PBS overnight at 4 °C, followed by blocking with 1% bovine serum albumin (BSA) in PBS overnight at 4 °C. The phage library (5 × 10^8 pfu in 100 µl of PBS-BSA) was incubated overnight at 4 °C, followed by 6 washes with PBS containing 1% BSA and 0.1% Tween-20 (washing buffer) to remove background phages, and by phage rescue and amplification in E. coli strain BLT5403 (Novagen, EMD Biosciences, MA, USA)[8]. The subsequent rounds of selection were performed on Ni-NTA Magnetic Agarose Beads (QIAGEN, Hilden, Germany) coated with His-6X tagged TNC-C (30 µg/10 µl beads) at room temperature for 1 h in 400 µl of PBS. The TNC-C beads were washed 3 times with washing buffer, followed by incubation with phages in (5 × 10^8 pfu in 100 µl in washing buffer) at room temperature for 1 h. The background phages were removed by rinsing 6 times with washing buffer, and the bound phages were eluted with 1 ml of PBS containing 500 mM Imidazole and 0.1% NP40.
The eluted phages were titered and amplified for a next round of selection. After 5 rounds of selection, peptide-encoding DNA from a set of 48 phage clones was subjected to Sanger sequencing of peptide-encoding phage DNA[18],[22]. For cell-free binding studies with individual phage clones were incubated with Ni-NTA magnetic beads coated with hexahistidine-tagged TNC-C as above. RPARPAR phage binding to NRP-1-coated beads was used as a positive control. Phage clones displaying heptaglycine peptide (GGGGGGG, G7), or insertless phage clones were used as negative controls. […]
Fig. S13. NRP -1-dependent internalization of PL3 -functionalized AgNPs […]
Supplementary Materials and Methods
Cloning, expression , and purification of TNC-C
Vector Construction. A pF1K (Promega, # FXC00319) derivative plasmid containing full -length cDNA of TNC was used for PCR amplification of cDNA region of TNC-C with Phusion Hot Start II High -Fidelity DNA Polymerase (Thermo Fisher Scientific Inc # F -537L; primer pairs:
5′- CTCCTCT […] -3′ and 5′ -
CAGACA CTCGAG TTATCA TGTAACAATCTC -3′ for domain TNC -C. NdeI and XhoI restriction sites underlined ). The fragments were cloned in the pET28a+ plasmid for TNC -C expression as a n N-terminally His -tagged protein .
Expression and purification of TNC-C. The pET28a+ TNC-C plasmid was used for transformation of E. coli BL21 Rosetta 2 (DE3) pLysS cells (Novagen, #70956). The protein expression was induced by addition of isopropyl β-D-1-thiogalactopyranoside (IPTG) (Sigma, # I6758) to 0.5 mM final concentration and the bacteria were culture d at 18 °C for 16h . Cells were […]
collected by centrifugation, resuspended in ice-cold IMAC buffer (25mM Tris-HCl, 400mM NaCl, 25mM imidazole pH 8, containing EDTA-free protease inhibitor cocktail and DNase I) and lysed by sonification (Bandelin Sonopuls HD 2070, Germany). The cleared bacterial lysate was purified using HiTrap IMAC HP column s (GE Healthcare # 17 -0920-05) on ÄKTA purification system (GE Healthcare ), and the eluate was dialyzed against PBS using 3.5 kDa cut - off 3mL Slide-A-Lyzer Dialysis Cassettes (Thermo Scientific #66330). TNC-C concentration was determined by bicinchoninic acid assay (Thermo Scientific #23227) , and the purity of the proteins was assessed by SDS -PAGE. Mass spectrometry and de novo peptide sequencing were used to confirm the size and sequence of the purified proteins . His-tagged NRP-1 b1b2 domain was expressed and purified as described (Teesalu et al., 2009) .
Single-chain antibodies: The cDNA sequences encoding TNC-C-G11-scFV were retrieved from […]

Substance | Representation of phage in tumors, PC3 (PC3) [fold G7 control phage] | Representation of phage in tumors, WT-GBM (WT-GBM) [fold G7 control phage] | Representation of phage in tumors, P3 SCL (P3 SCL) [fold G7 control phage] | Representation of phage in tumors, U87-MG (U87-MG) [fold G7 control phage] | Representation of phage in tumors, P13 (P13) [fold G7 control phage] | Representation of phage in control brain tissue (Norm. brain) (Norm. brain) [fold G7 control phage] | TNC-C binding (fold G7 control phage) (recombinant TNC-C)
VGRVRFSRKLAAALE [Clone-30] | 1.2 | 2.5 | 0.4 | 0.7 | 0.5 | 0.1 | 3702
AGRGRLVRAKLAAALE [Clone-5] | 0.3 | 23.9 | 0.4 | 0.2 | 0.1 | 0.0 | 5785
CSRRGILRAKPAAALE [Clone-4] | 1.2 | 1.5 | 0.9 | 1.1 | 0.8 | 0.1 | 4889
RGRLRRVE [Clone 44] | – | – | – | – | – | – | 886
CRGVLRRAKLAAALE [Clone-2] | 0.9 | 1.6 | 0.4 | 0.7 | 0.4 | 0.1 | 5955
GGGGGGG [heptaglycine control phage, reference compound] | 1.0 | 1.0 | 1.0 | 1.0 | 1.0 | 1 | –
RGRLVRAK [Modified clone-5] | 3.0 | 23.8 | 0.3 | 0.5 | 0.1 | 0.2 | –
AVRGRLRVAKLAAALE [Clone-3] | 1.0 | 1.3 | 0.6 | 0.8 | 0.6 | 0.1 | –
AGVGRLRRAKLAAALE [Clone-1] | 1.4 | 2.3 | 0.9 | 1.0 | 0.9 | 0.2 | 3259
CAGRGRLVRC [Modified clone-5] | 0.4 | 0.9 | 0.2 | 0.1 | 0.4 | 0.0 | –
RGRLVRA [Clone-45] | 1.8 | 3 | 0.3 | 0.8 | 0.4 | 0.1 | 737
CQRMGVVGAKLAAALE [Clone 36] | – | – | – | – | – | – | 3928
RRLVRVA [Clone-35] | 0.9 | 1.4 | 0.3 | 0.6 | 0.4 | 0.1 | 1223
